Results on five molecules are retold here after patent publication US20170198363A1, “COMPOSITIONS AND METHODS FOR DETECTION OF SMALL MOLECULES” (COLORADO STATE UNIVERSITY RESEARCH FOUNDATION, priority 2015, published 2017).

For one data set, the target named is T1, degron-G-PRO1-V (Saccharomyces cerevisiae, UniProt P0CY08).
T1 construct: expressed in transfected cells; host or cells: S. cerevisiae strain PJ69-4a transformed with a p16C (p416CYC) plasmid
Kind of data set: HIS3 reporter growth assay, strain PJ69-4a. Format: cell-based, yeast. The following applies: HIS3 reporter strain PJ69-4a.

In a further data set the test system is yeast. Kind of data set: Progesterone toxicity to yeast cells.
A further data set deals with plant cells. Kind of data set: Progesterone toxicity to plant cells (protoplasts).
Data set [1] has as its system plant biosensor (G-DIG1-V-Matα2). Kind of data set: Induction of the plant biosensor by steroids. Format: in vivo, Arabidopsis thaliana. The following applies: transgenic Arabidopsis.
The nature of data set [2]: Progesterone biosensor luciferase assay in plant protoplasts. Format: cell-based. The conditions noted are these: 25 μM progesterone, L77F mutation in the Gal4 DBD.
For data set [3] the following is noted: cited from earlier work.
The conditions of data set [4]: cited from earlier work. This is another data set of the same source.
Data set [5] in a line: PRO0 binding of progesterone.

Consider `CC(=O)[C@H]1CC[C@H]2[C@@H]3CCC4=CC(=O)CC[C@]4(C)[C@H]3CC[C@]12C` [Progesterone, progesterone], for which, on degron-G-PRO1-V, the “stimulation of growth of degron-G-PRO1-V” value is recorded as “stimulated”. Also, the “level at which toxic, leading to substantial cell death” value in the data set on yeast was no less than 100 µM. The “concentration that seems to be toxic to the plant cells” value in the data set on plant cells was 250 µM. In the case of `C[C@H]1O[C@@H](O[C@H]2[C@@H](O)C[C@H](O[C@H]3[C@@H](O)C[C@H](O[C@H]4CC[C@@]5(C)[C@H](CC[C@@H]6[C@@H]5C[C@@H](O)[C@]5(C)[C@@H](C7=CC(=O)OC7)CC[C@]65O)C4)O[C@@H]3C)O[C@@H]2C)C[C@H](O)[C@@H]1O` [digoxin], the “induction of the plant biosensor” value in data set [1] is “capable of inducing”.

B1: PRO2: progesterone binding sensor protein, SEQ ID NO:17, tested as TF-biosensor in plant protoplasts (protein)
chain: MNAKEIVVHSLRLLENGDARGWSDLFHPEGVLEFPYAPPGHKTRFEGRETIWAHMRLFPEYVTVRFTDVQFYETADPDLAIGEFHGDGVLTASGGMLAFDFIAVWRTRDGQILQYRVFYNPLRELEALGGVEAAAKIVQGAGSLE
For B1, the “increase in luciferase expression over background levels” value in data set [2] is reported as roughly 3 fold.

B2: DIG10.3 (protein)
chain: MNAKEIVVHSLRLLENGDARGWSDLFHPEGVLEYPYAPPGHKTRFEGRETIWAHMRLFPEYVTVRFTDVQFYETADPDLAIGEFHGDGVLTASGGKLAYDYIAVWRTRDGQILLYRVFFNPLRVLEALGGVEAAAKIVQGAGSLE
In the case of B2, the affinity for digoxin result in data set [3] is “picomolar”. Moreover, the affinity for digoxigenin result in data set [4] is “picomolar”.

B3: PRO0: progesterone binder from three rationally designed binding site mutations in DIG0; SEQ ID NO:13 (protein)
chain: MNAKEIVVHSLRLLENGDARGWSDLFHPEGVLEFPYAPPGHKTRFEGRETIWAHMRLFPEYVTVRFTDVQFYETADPDLAIGEFHGDGVLTASGGKLAFDFIAVWRTRDGQILLYRVFFNPLRVLEALGGVEAAAKIVQGAGSLE
For B3, in data set [5], the affinity for progesterone result is given as “nanomolar”.
